# Source: patent US20170137473A1, “FLUOROGEN ACTIVATING AND SHIFTING TAG (FAST)” (PARIS SCIENCES ET LETTRE - QUARTIER LATIN, priority 2014, published 2017)
# Experiments:
# wild-type PYP = biological target: T1, wild-type PYP (Halorhodospira halophila, UniProt P16113, C69G); test: Fluorogen labeling of cells expressing wild-type PYP; type: cell-based
# T1 construct: fusion partner differs by host: Aga2p (yeast surface display, pAG14); His-tag-ENLYFQG (E. coli, pET28a); expressed in transfected cells
# Protocol: (§1) Flow cytometry analysis was performed on an Accuri C6 (BD Biosciences). Confocal micrographs were acquired on a Zeiss LSM 710 Laser Scanning Microscope equipped with a Plan Apochromat 63×/1.4 NA oil immersion objective. ZEN software was used to collect the data. Images were analyzed with Image J. Spinning-disk confocal micrographs were acquired on a Nikon Eclipse Ti microscope equipped with a 4×/0.15 N.A objective and a coolSnap HQ2/CDDcamera (Princeton Instrument). Metamorph premier 7.6 software (Molecular Devices) was used to collect the data.
# (§2) Labeling of Y-FAST with HBR and HMBR in cells was then analyzed by flow cytometry in three different expression systems: yeast, E. coli and mammalian cells (HeLa cells). The fluorescence was compared to wild-type cells or cells expressing wild-type PYP. […] The performance and selectivity of Y-FAST labeling in mammalian cells, yeast and bacteria was furthermore confirmed by confocal microscopy (FIG. 14d and FIGS. 15 c to f and FIG. 16).
# HeLa cells = test: LIVE/DEAD viability assay (calceinAM, EthD1) of HeLa cells; type: cell-based; details: incubated 5 h at 5, 10 and 20 μM; concentrations used for imaging
# Protocol: Cell viability was tested by using calceinAM and EthD1 (LIVE/DEAD® viability/cytotoxicity assay kit). CalceinAM is a cell-permeant profluorophore cleaved by intracellular esterases releasing the green fluorescent polyanionic calcein in live cells. EthD1 (Ethidium homodimer 1) is a non cell-permeant nucleic acid red fluorescent stain that enters only cells with damaged membranes and undergoes a fluorescence enhancement upon binding to nucleic acids, thereby producing a bright red fluorescence in dead cells. Control experiments with HeLa cells non-incubated with dye (top left, live control) or incubated for 1 h with 1% hydrogen peroxyde (top right, dead control) are shown. Cell fluorescence was evaluated by confocal microscopy.
# [1] = test system: wild-type bacteria, yeast and mammalian cells; test: Fluorescence background of fluorogen in wild-type cells (flow cytometry, confocal); type: cell-based
# Protocol: as §1, §2
# Y-FAST [2] = biological target: T2, Y-FAST (Halorhodospira halophila, UniProt P16113, C69G/D97P/F96I/M100R/Q99S/T101G/T95M/Y94W/Y98T); type: cell-based
# T2 construct: expressed in transfected cells; host or cells: HeLa cells, transiently transfected (pAG96, pIRES vector)
# Protocol: FIG. 21 is a set of graphs and images showing that Y-FAST fluorescence can be switched on and off by addition and withdrawal of the fluorogenic ligand. (a,b) HeLa cells expressing mCherry-Y-FAST were grown in a microfluidic channel and repeatedly incubated with HMBR-containing culture medium for 20 s and HMBR-free culture medium for 40 s. A multifunctional fluidic controller enabled several cycles of labeling/unlabeling. […] (a) Confocal timelapse showing two cycles of labeling/unlabeling (Ex/Em 488/493-575 nm). (b) Temporal evolution of the cell fluorescence upon addition (+) and removal (−) of HMBR. (c) Confocal micrographs of live HeLa cells expressing Dronpa-NLS (nucleus) and lyn11-Y-FAST (membrane) showing sequential imaging of nuclear Dronpa and membrane-anchored Y-FAST thanks to sequential on/off labeling of Y-FAST intercalated with on/off photoswitching of Dronpa (Ex/Em 488/493-797 nm). […] Scale bars 10 μm.
# FIG. 22 is a set of graphs and images showing that Y-FAST enables the control of the density of fluorescent labeling independently of the expression level. […] Data represents mean±SD (n=15).
# A rapid prototyping technique has been used for the device fabrication. A digital cutting machine (Graphtec, CE6000) was used to produce a 0.5 mm wide microfluidic channel in a 0.5 mm thick silicone layer, which was supported by a 50 μm thick plastic film. After removing the plastic film and oxygen plasma treatment, the silicone layer was bonded to a 5 mm thick layer of polydimethylsiloxane (PDMS) which was prepared by casting a mixture of A and B components of RTV 615 (GE, France) at a 10:1 w/w ratio on a flat silicon wafer and curing it at 80° C. for 2 h. Then, inlet and outlet holes were punched with a metal tube for connections. Afterward, the silicone-PDMS complex was bonded to a 160 μm thick cover slide after oxygen plasma treatment. Finally, the whole device was put in a 80° C. oven for 10 min. Before cell seeding, the device was sterilized under UV exposure for more than 30 min. […]
# Y-FAST [3] = biological target: T2, Y-FAST; test: Labeling of Y-FAST in living cells (yeast, E. coli, HeLa) by flow cytometry; type: cell-based
# Protocol: as §1, §2
# zebrafish embryos = test: Fitness of zebrafish embryos incubated with HMBR during development; type: in vivo; details: incubation from 50% epiboly to 24 hpf; data not shown
# T2 sequence (P16113 whole entry C69G/Y94W/T95M/F96I/D97P/Y98T/Q99S/M100R/T101G): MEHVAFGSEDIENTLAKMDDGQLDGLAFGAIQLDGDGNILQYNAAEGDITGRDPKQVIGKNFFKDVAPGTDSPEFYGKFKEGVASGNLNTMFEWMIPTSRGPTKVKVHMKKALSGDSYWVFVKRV
# T1 sequence (P16113 whole entry C69G, the tested form may be a part): as the sequence (P16113 whole entry C69G/Y94W/T95M/F96I/D97P/Y98T/Q99S/M100R/T101G) above, with W94Y, M95T, I96F, P97D, T98Y, S99Q, R100M, G101T counted along it
smiles,measurement,setting,value
"Cc1cc(/C=C2\SC(=S)NC2=O)ccc1O [HMBR, (Z)-5-(4-hydroxy-3-methylbenzylidene)-2-thioxo-1,3-thiazolidin-4-one]",binding to wild-type PYP,wild-type PYP,do not bind
same,toxicity for HeLa cells,HeLa cells,non-toxic
same,fluorescence background in wild-type cells,[1],no or negligible fluorescence background
same,time of labeling in cells,"Y-FAST [2]; 5 μM HMBR, microfluidic channel",within about ten seconds
same,concentration sufficient for full labeling in cells,Y-FAST [2]; HeLa cells expressing mCherry-Y-FAST,1 µM
same,cell permeability,Y-FAST [2]; inferred from labeling time in HeLa cells,good cell permeability
same,"fluorescent labeling of Y-FAST in living cells, comparison",Y-FAST [3],outperforms HBR
same,"toxicity for zebrafish embryos (mortality, development)",zebrafish embryos,did not induce any mortality or perturbation in the development
